From patent publication US7772429B2, “Diphenylazetidinone with improved physiological properties, process for its preparation, medicaments comprising this compound, and its use” (Sanofi-Aventis Deutschland GmbH, priority 2003, dated 2010)
≈ marks a conversion by molar mass, not a printed value.

Columns and labels:
[1] = tested on: cholesterol absorption (uptake of 14C-cholesterol by the liver); experiment: Cholesterol absorption test: uptake of 14C-cholesterol by the liver; type: in vivo, NMRI mice; conditions: dose at which uptake of 14C-cholesterol by the liver is halved vs control group; mouse, peroral
[2] = Solubility in aqueous buffers, FaSSIF and FeSSIF (HPLC/UV); type: physicochemical; conditions: for solubility at 4 h: 25 °C, thermodynamic from solid
Description: FaSSIF (fasted State Simulating Intestinal Fluid) and FeSSIF (Fed State Simulating Intestinal Fluid) media which reflect the pH/solubilization conditions in the upper small intestine in the pre- and postprandial state, respectively, were used to test this improved solubility.
0.5 mg of the compound to be tested was weighed exactly into an Eppendorf cap, and 0.5 ml of the solvent in question (aqueous buffer) was added. The Eppendorf cap was then introduced into a thermomixer and, at 25° C., shaken at 1 400 rpm for 4 hours.
The Eppendorf cap was then introduced into a centrifuge. Following centrifugation, an aliquot of the supernatant was used to determine the amount dissolved, using HPLC/UV analysis.

[3] = Stability in solution in aqueous buffers (HPLC/UV); type: physicochemical; conditions: for Increase of the area of the impurities in percent: 24 hours at 37° C.
Description: The stability of dissolved compound I and of dissolved C1 was determined in aqueous buffers in the pH range 1.2-8.0. 1 mg of the compound in question was weighed into a 5 ml measuring flask. A small amount of acetonitrile was used to dissolve the substance. The flask was then filled up to the mark with the aqueous buffer. The precipitated compound was centrifuged and the clear supernatant was then tested for stability in solution for 24 hours at 37° C. The samples were evaluated using HPLC/UV.

[4] = FaSSIF, repetition of the tests
[5] = FeSSIF, repetition of the tests
[6] = aqueous buffer, pH 1.2, simulated gastric fluid, pH 1.2 aqueous buffer, 4 hours
[7] = aqueous buffer, pH 4.5, aqueous buffer, 4 hours
[8] = aqueous buffer, pH 6.8, aqueous buffer, 4 hours
[9] = aqueous buffer, pH 8, aqueous buffer, 4 hours
[10] = based on an available volume of 250 ml (Biopharmaceutical Classification System), best case

soluble dose ([2]; based on an available volume of 250 ml, worst case) [mg]	SMILES	ED50 (liver) [1] [mg/mouse]	solubility at 4 h ([2]; FaSSIF, 4 hours) [µg/mL]	solubility at 4 h [2, 4] [µg/mL]	solubility at 4 h ([2]; FeSSIF, 4 hours) [µg/mL]	solubility at 4 h [2, 5] [µg/mL]	pH of the water sample (Water (pH)) ([2]; Water, 25° C., shaken 4 hours)	solubility at 4 h [2, 6] [µg/mL]	solubility at 4 h [2, 7] [µg/mL]	solubility at 4 h [2, 8] [µg/mL]	solubility at 4 h [2, 9] [µg/mL]	soluble dose [2, 10] [mg]	solubility at 4 h ([2]; water, shaken 4 hours) [µg/mL]	times more stable than C1 ([3]; depending on the pH, relative to C1)	Increase of the area of the impurities in percent ([3]; pH 1.2) [%]	Increase of the area of the impurities in percent ([3]; pH 6.8) [%]	Increase of the area of the impurities in percent ([3]; pH 8.0) [%]
–	COc1ccc([C@@H]2[C@@H](CC[C@H](O)c3ccc(F)cc3)C(=O)N2c2ccc(CNC(=O)CCCCCCCCCCC(=O)NC[C@H](O)[C@@H](O)[C@H](O)[C@H](O)CO)cc2)cc1 [Example I, dodecanedioic acid 4-[(2S,3R)-3-[(S)-3-(4-fluorophenyl)-3-hydroxypropyl]-2-(4-methoxyphenyl)-4-oxoazetidin-1-yl]benzylamide ((2S,3R,4R,5R)-2,3,4,5,6-pentahydroxyhexyl)amide]	0.005	28 (≈ 34.6 µM)	43 (≈ 53.1 µM)	454 (≈ 561 µM)	290 (≈ 358 µM)	6.8	3 (≈ 3.7 µM)	4 (≈ 4.94 µM)	2 (≈ 2.47 µM)	2 (≈ 2.47 µM)	~100	3 (≈ 3.7 µM)	at least 2.7 times	4.9	0	0.2
1.25	COc1ccc([C@@H]2[C@@H](CC[C@H](O)c3ccc(F)cc3)C(=O)N2c2ccc(CNC(=O)CCCCCCCCCCCNC(=O)[C@H](O)[C@@H](O)[C@H](O)[C@H](O)CO)cc2)cc1 [Example C1, reference compound]	–	5 (≈ 6.17 µM)	6 (≈ 7.41 µM)	18 (≈ 22.2 µM)	20 (≈ 24.7 µM)	–	< 1	< 1	< 1	< 1	~5	< 1	–	13.3	0.5	4.6
